The values that follow are results of earlier work, collected in patent US7718380B2 (Abbott Laboratories, priority 2005, dated 2010).

SMILES strings stand for the structures.

Turning to `C=CC[C@@H]1/C=C(\C)C[C@H](C)C[C@H](OC)[C@H]2O[C@@](O)(C(=O)C(=O)N3CCCC[C@H]3C(=O)O[C@H](/C(C)=C/[C@@H]3CC[C@@H](O)[C@H](OC)C3)[C@H](C)[C@@H](O)CC1=O)[C@H](C)C[C@@H]2OC` [Tacrolimus], the “solubility in aqueous solutions” value was “limited solubility”.
